Experimental data as given in patent US20240368088A1, “EP4 ANTAGONIST COMPOUND AS WELL AS SALT, POLYMORPH AND USE THEREOF” (Wuhan Humanwell Innovative Drug Research and Development …, priority 2021, published 2024).
≈ marks a conversion by molar mass, not a printed value. Each block holds one compound with its values, some of them ahead of it.

Assays:
[1] = Hygroscopicity evaluation by dynamic vapor sorption (DVS); type: physicochemical
Method: Dynamic vapor sorption (DVS) curves are acquired on a DVS IntrInsic in Surface Measurement Systems (SMS). The relative humidity at 25° C. is corrected with the deliquescence points of LiCI, Mg (NO3)2, and KCI.
Starting at 0% RH, the test acquired the percentage change in mass of the sample when humidity changed (0% RH to 95% RH to 0% RH) at a constant temperature of 25° C.

[2] = Solid state stability (XRPD and HPLC after uncovered storage); details: for Relative to starting (%): HPLC purity; for Purity (area %): HPLC
Method: XRPD patterns are acquired on an X-ray powder diffraction analyzer manufactured by PANalytacal, and the scanning parameters are shown in Table A-1 below.
The free acid crystal form A and the crystal form A of the tromethamine salt were left to stand uncovered for 1/4 weeks at 25° C./60% RH and 40° C./75% RH, respectively, and then the physical and chemical stability of the samples was tested by XRPD and HPLC.

[3] = Dynamic solubility experiment at 37° C. in water, SGF, FaSSIF and FeSSIF; details: for solubility at 1 h / solubility at 2 h / solubility at 4 h / solubility at 24 h: 37 °C, thermodynamic from solid; for Crystal form change: XRPD of centrifuged solid; for pH: pH value of filtrate;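 for all read-outs here: at each sampling time, filtrate assayed by HPLC for concentration and for pH, centrifuged solid checked by XRPD, media SGF at pH 1.8, FaSSIF 6.5, FeSSIF 5.0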
Method: In the test, the purity, dynamic solubility and stability are tested by an Agilent 1260 high-performance liquid chromatograph.
The solid at a feeding concentration of 10 mg/mL (40 mg of solid in 4 mL of solvent, calculated as free acid) was rotationally mixed at 37° C., and the solubility of each sample in four systems of water, SGF, FaSSIF, and FeSSIF was determined at different time points (1 h, 2 h, 4 h, and 24 h). After sampling at each time point, the sample was centrifuged (at 10000 rpm) and filtered (through a 0.45 μm PTFE filter head), the filtrate was determined for HPLC concentration and pH value, and the centrifuged solid samples were tested for XRPD.
200.3 mg of NaCl and 105.0 mg of Triton X-100 were weighed out and added to a 50-mL volumetric flask, purified water was added, and the mixture was completely dissolved. 136 μL of concentrated hydrochloric acid (12 M) was added, and the pH was adjusted to 1.8 with 1 M hydrochloric acid or 1 M NaOH solution. Purified water was added, and the mixed solution was brought to volume.
0.34 g of anhydrous NaH2PO4, 0.44 g of NaOH, and 0.62 g of NaCl were weighed out and added to a 50-mL volumetric flask. Purified water was added, the mixture was completely dissolved, and the pH was adjusted to 6.5 with 1 M hydrochloric acid or 1 M NaOH solution. Purified water was added, and the mixed solution was brought to volume. 0.11 g of SIF powder was then weighed out, and the mixed solution was completely dissolved.
0.82 mL of glacial acetic acid, 0.40 g of NaOH, and 1.19 g of NaCl were added to a 50-mL volumetric flask. About 48 mL of purified water was added, the mixture was completely dissolved, and the pH was adjusted to 5.0 with 1 M hydrochloric acid or 1 M NaOH solution. Purified water was added, and the mixed solution was brought to volume. 0.56 g of SIF powder was then weighed out, and the mixed solution was completely dissolved.

[4] = Crystal form conversion on drying at room temperature; type: physicochemical
Method: The free acid crystal form A was dissolved in MIBK (methyl isobutyl ketone), and then the mixture was subjected to gas-liquid diffusion in an n-pentane atmosphere to obtain free acid crystal form B (XRPD pattern thereof shown in FIG. 5).

[5] = 25° C./60% RH/uncovered, 1 week
[6] = 25° C./60% RH/uncovered, 4 weeks
[7] = 40° C./75% RH/uncovered, 1 week
[8] = 40° C./75% RH/uncovered, 4 weeks
[9] = SGF, pH 1.8, simulated gastric fluid

hygroscopicity (in words) ([1]; DVS, 25° C./80% RH): almost no hygroscopicity
vapor sorption ([1]; DVS, 25° C./80% RH): 0.07%
crystal form after DVS test ([1]; XRPD before and after DVS, 0% RH to 95% RH to 0% RH, 25° C.): unchanged
hygroscopicity (summary statement) ([1]; beneficial effects summary): relatively low hygroscopicity
physicochemical stability (summary statement) [2]: good physicochemical stability
HPLC purity change after placement (in words) ([2]; 25° C./60% RH and 40° C./75% RH, uncovered, 1/4 weeks): not significantly changed
crystal form change after placement (in words) ([2]; 25° C./60% RH and 40° C./75% RH, uncovered, 1/4 weeks, XRPD): not changed
Relative to starting (%) [2, 5]: 99.81%
Relative to starting (%) [2, 6]: 99.83%
Relative to starting (%) [2, 7]: 99.79%
Relative to starting (%) [2, 8]: 99.77%
Purity (area %) [2, 5]: 94.14 area %
Purity (area %) [2, 6]: 94.19 area %
Purity (area %) [2, 7]: 94.15 area %
Purity (area %) [2, 8]: 94.13 area %
Purity (area %) ([2]; Starting): 94.35 area %
solubility at 1 h ([3]; FaSSIF, pH 6.5, fassif): 1960 µg/mL (≈ 4090 µM)
solubility at 2 h ([3]; FaSSIF, pH 6.5, fassif): 1830 µg/mL (≈ 3820 µM)
solubility at 4 h ([3]; FaSSIF, pH 6.5, fassif): 1860 µg/mL (≈ 3880 µM)
solubility at 24 h ([3]; FaSSIF, pH 6.5, fassif): 1590 µg/mL (≈ 3320 µM)
solubility at 1 h ([3]; FeSSIF, pH 5, fessif): 210 µg/mL (≈ 438 µM)
solubility at 2 h ([3]; FeSSIF, pH 5, fessif): 220 µg/mL (≈ 459 µM)
solubility at 4 h ([3]; FeSSIF, pH 5, fessif): 220 µg/mL (≈ 459 µM)
solubility at 24 h ([3]; FeSSIF, pH 5, fessif): 210 µg/mL (≈ 438 µM)
solubility at 1 h [3, 9]: 40 µg/mL (≈ 83.4 µM)
solubility at 2 h [3, 9]: 40 µg/mL (≈ 83.4 µM)
solubility at 4 h [3, 9]: 50 µg/mL (≈ 104 µM)
solubility at 24 h [3, 9]: 40 µg/mL (≈ 83.4 µM)
Crystal form change ([3]; FaSSIF, 37° C., 1 h): No
Crystal form change ([3]; FaSSIF, 37° C., 2 h): No
Crystal form change ([3]; FaSSIF, 37° C., 4 h): No
Crystal form change ([3]; FaSSIF, 37° C., 24 h): No
Crystal form change ([3]; FeSSIF, 37° C., 1 h, Yes^a: converted to the free acid crystal form A): No
Crystal form change ([3]; FeSSIF, 37° C., 2 h, Yes^a: converted to the free acid crystal form A): No
Crystal form change ([3]; FeSSIF, 37° C., 4 h, Yes^a: converted to the free acid crystal form A): No
Crystal form change ([3]; FeSSIF, 37° C., 24 h, Yes^a: converted to the free acid crystal form A): No
Crystal form change ([3]; H2O, 37° C., 1 h): No
Crystal form change ([3]; H2O, 37° C., 2 h): No
Crystal form change ([3]; H2O, 37° C., 4 h): No
Crystal form change ([3]; H2O, 37° C., 24 h): No
Crystal form change ([3]; SGF, 37° C., 1 h, Yes^a: converted to the free acid crystal form A): No
Crystal form change ([3]; SGF, 37° C., 2 h, Yes^a: converted to the free acid crystal form A): No
Crystal form change ([3]; SGF, 37° C., 4 h, Yes^a: converted to the free acid crystal form A): No
Crystal form change ([3]; SGF, 37° C., 24 h, Yes^a: converted to the free acid crystal form A): No
pH ([3]; FaSSIF, 37° C., 1 h): 6.1
pH ([3]; FaSSIF, 37° C., 2 h): 6.1
pH ([3]; FaSSIF, 37° C., 4 h): 6.1
pH ([3]; FaSSIF, 37° C., 24 h): 6.1
pH ([3]; FeSSIF, 37° C., 1 h): 4.9
pH ([3]; FeSSIF, 37° C., 2 h): 4.9
pH ([3]; FeSSIF, 37° C., 4 h): 4.9
pH ([3]; FeSSIF, 37° C., 24 h): 5.0
pH ([3]; H2O, 37° C., 1 h): 8.3
pH ([3]; H2O, 37° C., 2 h): 8.4
pH ([3]; H2O, 37° C., 4 h): 8.3
pH ([3]; H2O, 37° C., 24 h): 4.8
pH ([3]; SGF, 37° C., 1 h): 1.8
pH ([3]; SGF, 37° C., 2 h): 1.8
pH ([3]; SGF, 37° C., 4 h): 1.8
pH ([3]; SGF, 37° C., 24 h): 1.8
solubility at 1 h ([3]; water): 80 µg/mL (≈ 167 µM)
solubility at 2 h ([3]; water): 80 µg/mL (≈ 167 µM)
solubility at 4 h ([3]; water): 90 µg/mL (≈ 188 µM)
solubility at 24 h ([3]; water): 130 µg/mL (≈ 271 µM)
crystal form after the vehicle solubility tests ([3]; water, SGF, FaSSIF, FeSSIF, 37° C., XRPD): unchanged
Structure (SMILES): C[C@H](NC(=O)c1c(C(F)F)nn(C)c1Oc1cccc(C(C)(F)F)c1)c1ccc(C(=O)O)cc1 [Free acid crystal form A, (S)-4-(1-(5-(3-(1,1-difluoroethyl)phenoxy)-3-(difluoromethyl)-1-methyl-1H-pyrazole-4-carboxamide)ethyl)benzoic acid]

Structure (SMILES): C[C@H](NC(=O)c1c(C(F)F)nn(C)c1Oc1cccc(C(C)(F)F)c1)c1ccc(C(=O)O)cc1 [free acid crystal form B, (S)-4-(1-(5-(3-(1,1-difluoroethyl)phenoxy)-3-(difluoromethyl)-1-methyl-1H-pyrazole-4-carboxamide)ethyl)benzoic acid]
crystal form after being dried at room temperature [4]: converted into the free acid crystal form A
